The results in this text go back to US20220072101A1, “HARNESSING INFLAMMATION TO TREAT NEURODEVELOPMENTAL DISORDERS” (President and Fellows of Harvard College, priority 2019, published 2022).

Type in all cases: in vivo, mouse
In experiment [1] the test system is MIA offspring. Kind of experiment: Marble burying assay. The note with it: four hours after LPS. As to the method:
On day 1, mice were tested for their baseline marble burying phenotype. On day 2, four hours prior to beginning the marble burying assay, mice were treated with either LPS or vehicle. Marble burying assay was carried out as described previously^8. Mice were placed into testing arenas (arena size: 40 cm×20 cm×30 cm, bedding depth: 3 cm) each containing 20 glass marbles (laid out in four rows of five marbles equidistant from one another). At the end of the 15 min exploration period mice were carefully removed from the testing cages and the number of marbles buried was recorded. The marble burying index was arbitrarily defined as the following: 1 for marbles covered >50% with bedding, 0.5 for marbles covered <50% with bedding, or 0 for anything less.

Experiment [2] deals with MIA offspring. Kind of experiment: Three-chamber social approach assay in PBS and MIA offspring. As to the method:
Adult male mice were assayed for sociability using a three-chamber social approach assay. The arena was constructed of white acrylic (50 cm×35 cm×30 cm). Wire cups (Spectrum Diversified®) were placed in the back left and right corner of the arena beneath water-filled 1 L bottles (Nalgene®). On Day 0, mice were habituated to the arena for 10 min. Immediately following habituation, mice were singly housed. On Day 1 (Pre), mice were placed in the center of the arena and allowed to freely explore. Following 10 min, mice were confined to the center of the arena. An inanimate object (rubber stopper) or a male conspecific were placed beneath the wire cups. Placement of the inanimate object and social target were alternated. Mice were then allowed to freely explore the arena for 10 min. Interaction time was defined as time spent in the areas circumscribing the wire cups (<2 cm). Sociability was defined as interaction time with the social target divided by total interaction time and expressed as a percentage. For experiments involving LPS injections, mice were injected with LPS ([…], i.p., L2630, Sigma) on Day 2 (Test), four hours prior to testing. […]
Adult male mice were implanted with cannula into S1DZ and allowed to recover for >2 weeks prior to behavioral experiments. On Day 1 (Pre) mice were assayed for sociability. On Day 2 (Test), mice were anesthetized briefly using isoflurane and either vehicle or IL-17a (50 ng/side in 1 μl at a rate of 180 nl/min, 7956-ML/CF, R&D®) was administered bilaterally into S1DZ through 250 μm-projecting injector tips (PlasticsOne®). Four hours after vehicle or IL-17a administration, mice were assayed for sociability. Cannula placements were verified using histology.
Adult male mice were assayed for sociability using a three-chamber social approach assay. The arena was constructed of white acrylic (50 cm×35 cm×30 cm). Wire cups (Spectrum Diversified®) were placed in the back left and right corner of the arena beneath water-filled 1 L bottles (Nalgene®). On day 0, mice were habituated to the arena for 10 min. Immediately following habituation, mice were singly housed. On day 1 (Pre), mice were placed in the center of the arena and allowed to freely explore. Following 10 min, mice were confined to the center of the arena. An inanimate object (rubber stopper) or a male conspecific were placed beneath the wire cups. Placement of the inanimate object and social target were alternated. Mice were then allowed to freely explore the arena for 10 min. Interaction time was defined as time spent in the areas circumscribing the wire cups (<2 cm). Sociability was defined as interaction time with the social target divided by total interaction time and expressed as a percentage. For experiments involving LPS injections, mice were injected with either saline (Veh) or LPS ([…], i.p., L2630, Sigma) on day 2 (Test), four hours prior to testing. For the experiment assaying sociability 72 hrs following LPS injection, mice used for 4 hr LPS sociability experiments were tested for sociability again at 72 hrs.
Adult male Vgat-Cre MIA offspring were bilaterally injected with virus encoding the inhibitory DREADD receptor fused to mCherry into the vLPO. Following >3 weeks of recovery, mice were assayed on the three-chamber social approach assay outlined above. Baseline sociability was assayed on day 1 (Pre). On day 2 and day 3, mice were injected with either Saline (Veh) or CNO (1.5 mg/kg i.p., BML-NS105, Enzo Life Sciences®), two hours prior to initiation of behavior. Injection order was counterbalanced. Following behavioral experiments, post-mortem histology was used to confirm mCherry expression within the vLPO. For experiments assaying the effect of CNO and LPS injection in Vgat-Cre PBS and MIA offspring that have not undergone surgery, baseline sociability was assessed on day 1. On day 2 and 3 mice received counterbalanced injections of CNO or vehicle. On day 4, mice were injected with LPS. […]

The subject of experiment [3] is MIA offspring. Kind of experiment: Reciprocal social interaction assay. The note with it: four hours after LPS. As to the method: Four hours prior to testing, mice were injected with vehicle or LPS. Two unfamiliar mice of the same treatment and background were placed in a fresh mouse cage and allowed to freely interact for 10 min. Videos were acquired using IC Capture (The Imaging Source®) at 640×480 aspect ratio and 25 fps. Social interaction (close following, push-crawl, nose-nose sniffing, and nose-anus sniffing) was scored by an observer blind to treatment and background^27.

Entries after “also recorded” stand apart in the source; their conditions may differ.

Take lipopolysaccharide [LPS]: the marble burying behavior entry with MIA offspring [1] is on record as “rescued an enhanced marble burying behavior”. Moreover, the sociability deficits entry with MIA offspring [2] (IFNγ or IL-17a knockout (KO) MIA offspring, LPS i.p., 4 hours) is “failed to rescue the sociability deficits in IFNγ or IL-17a knockout (KO) MIA offspring”. In addition, the “LPS-induced rescue of sociability by age” value in the experiment with MIA offspring [2] (MIA mice, young (2-5 months) and aged (9-12 month), 4 hr after LPS) is “observed in both young (2-5 months) and aged (9-12 month) mice; also recorded: effective in aged mice”. The “sociability (deficit in sociability)” value with MIA offspring [2] (MIA offspring (WT), LPS 50 μg/kg i.p., 4 hours after injection) is reported as “temporarily rescued; also recorded: robustly rescued their characteristic deficits in sociability; also recorded: restored sociability; also recorded: rescues sociability deficits in MIA offspring”. Further, the sociability entry in the experiment on MIA offspring [2] (MIA offspring deficient for IL-17Ra in the S1DZ (IL-17Ra fl/fl; EGFP:nCre), LPS i.p., 4 hours) is “failed to restore sociability”. For the same substance, in the experiment on MIA offspring [2] (MIA offspring, 72 hours after LPS treatment), the “sociability rescue 72 hours following LPS” value is on record as “behavioral rescue was absent 72 hours following LPS treatment; also recorded: absent 72 hours following the treatment; also recorded: transient”. For the same substance, the baseline sociability entry in the experiment with MIA offspring [2] (PBS (control) offspring, LPS i.p., 4 hours after injection) is recorded as “Neither vehicle nor LPS injection affected baseline sociability in PBS offspring; also recorded: did not affect baseline sociability in control offspring”. Besides, the “sociability in MIA Vgat-Cre mice” value in the experiment on MIA offspring [2] (Vgat-Cre MIA offspring without surgery, CNO 1.5 mg/kg i.p. or LPS) is reported as “showed an increase in sociability upon LPS treatment”. The reciprocal social interaction entry with MIA offspring [3] was “rescue of MIA sociability deficits was also evident”.
